Test results reported in US9040255B2, “Use of diazolidinyl urea for anti-clumping of biological samples” (BIOCEPT, INC., priority 2010, dated 2015).

System: cell clumps in blood
Assay: Cell clumping of biological samples (blood) processed through a microfluidic device
Type: cell-based
Settings: DU 2% final working concentration, incubated at room temperature for 30 minutes or overnight, compared with samples without DU (FIGS. 1-4)
Experimental: In this experiment, DU was dissolved in PBS to make an 80% (w/v) aqueous concentrated solution. The concentrated solution was then added to biological samples in such a way as to yield a final working concentration of 2%. Biological samples were gently mixed with DU solution to ensure equal distribution of DU, and the resulting mixture was incubated at room temperature for at least 30 minutes.
Samples were then processed according to pre-determined protocols.
FIG. 1 provides an example of samples without being treated with DU and processed through a microfluidic device. The white strands are cell clumps.
FIG. 2 provides an example of samples being treated with DU and processed through a microfluidic device (for this particular experiment, the sample and DU were incubated overnight).
FIG. 3 provides another example of samples without being treated with DU and processed through a microfluidic device.
FIG. 4 provides another example of samples being treated with DU and processed through a microfluidic device (for this particular experiment, the sample and DU were incubated for 30 minutes.

SMILES: O=C(NCO)N(CO)C1(CO)C(=O)NC(=O)N1CO (stereo not shown) [DU, diazolidinyl urea]
- reduction of cellular clumping: great improvement for reducing cellular clumping
